Reference: patent publication US20060128014A1, “Compositions and methods for culturing stem cells” (priority 2002, published 2006)
Where no end group is shown, it is not given here.

Tests used:
human neural stem cells = assay: Neurosphere formation of human neural stem cells; format: cell-based
Experimental: Culture of human neural stem cells: Human neural stem cells were isolated and cultured under adherent conditions according to the protocol described in Palmer et al., 2001, Nature 411(6833):42-43, modified to exclude the additives PDGF and cystatinC and using B27 supplement instead of BIT. The cells were cultured for 10-16 passages in DMEM/F12 with B27-supplement and EGF (20 ng/ml) and FGF-2 (20 ng/ml). Cells were detached with Trypsin/EDTA, rinsed three times and then replated in suspension culture plastic wells in DMEM/F12 and B27-supplement for 24 h without growth factors. Thereafter factors (Vanadate, EGF or EGF+FGF2) were added for one day.

[1] = test system: adult derived neural stem cells; assay: Proliferation of adult derived neural stem cells by increased cAMP (unpublished results); format: cell-based; details: increased levels of cAMP
neural stem cells = assay: Sphere formation in presence of vanadate and in combination with PACAP; format: cell-based; details: DMEM/F12 with B27, after 7 days
Experimental: Cells were isolated as described (see section 5.5.1). Aliquots of 1 ml cell suspension per well equivalent to one brain per well were plated in DMEM/F12 supplemented with B27.
10 uM Vanadate or 10 uM Vanadate +300 nM PACAP was added to the cultures. Fresh substances were added every second day. After 7 days sphereformation was observed.

hippocampal CA1 region = details: cited from earlier work; for delayed neuronal death in the hippocampal CA1 region: transient forebrain ischemia
adult neural stem cells = assay: Intracellular ATP assay (ViaLight kit) on cultured adult neural stem cells; format: cell-based, mice; details: for maximal amplitudes of responses: vanadate and EGF each added alone, compared
Experimental: Neurosphere cultures: The anterior lateral wall of the lateral ventricle of 5-6 week old mice was enzymatically dissociated in 0.8 mg/ml hyaluronidase and 0.5 mg/ml trypsin in DMEM containing 4.5 mg/ml glucose and 80 units/ml DNase at 37° C. for 20 min. The cells were gently triturated and mixed with three volumes of Neurosphere medium (DMEM/F12, B27 supplement, 125 mM HEPES pH7.4) containing 20 ng/ml EGF (unless otherwise stated), 100 units/ml penicillin and 100 _g/ml streptomycin. After passing through a 70 _m strainer, the cells were pelleted at 160×g for 5 min. The supernatant was subsequently removed and the cells resuspended in Neurosphere medium supplemented as above, plated out in culture dishes and incubated at 37° C. Neurospheres were ready to be split approximately 7 days after plating.
To split the neurospheres, they were collected by centrifugation at 160×g for 5 min. The conditioned supernatant (conditioned medium) was removed and saved. The neurospheres were resuspended in 0.5 ml Trypsin/EDTA in HBSS (1×), incubated at 37° C. for 2 min and triturated gently to aid dissociation. Following a further 3 min incubation at 37° C. and trituration, 3 volumes of ice cold NSPH-media-EGF were added to stop further trypsin activity. The cells were pelleted at 220×g for 4 min, and resuspended in a 1:1 mixture of fresh Neurosphere medium and conditioned medium. EGF was supplemented to 20 ng/ml and the culture plated out and incubated at 37° C.
Where stated, a minimal Neurosphere medium was used containing BIT supplement in place of B27 supplement.
Neurosphere assays: NSC, cultured as described above, from passage 2 were seeded in DMEM/F12 supplemented with B27 into a 96-well plate as single cells (10000 cells/well), to which agents were added at the concentrations indicated.
After 3 days of treatment, intracelluar ATP was measured using the ViaLight kit (BioWhittaker) according to the manufacturer's instructions.

[2] = cited from earlier work
[3] = experimental animals; cited from earlier work

## FGF-2: protein growth factor
Human neural stem cells; growth factors added for one day, FIG. 8b and 8c
  neurosphere formation with growth factors: reduced neurosphere formation

## PACAP: neuropeptide acting on cyclase activating GPCRs (HSDGIFTDSYSRYRKQMAVKKYLAAVLGKRYKQRVKNK; ends and bridges not checked; UniProt P18509 132-169, looked up)
[1]
  proliferation: trigger proliferation

## [O]=[V]([O-])([O-])[O-] [vanadate]
Neural stem cells; 10 uM Vanadate + 300 nM PACAP, FIG. 6b
  sphere formation: Sphereforming capacity was noted
Neural stem cells; 10 uM Vanadate alone, FIG. 6a
  sphere formation: Sphereforming capacity was noted
Human neural stem cells; 10 uM, after 1 d, DMEM/F12 and B27-supplement, FIG. 8a
  sphere formation: formed numerous spheres
Human neural stem cells; 10 uM, after 1 d, FIG. 8a
  adherence of the spheres: virtually all spheres were free floating
Hippocampal CA1 region; experimental animals
  neuroprotection: neuroprotective
Adult neural stem cells; added alone, growth media supplemented with BIT or B27, 3 days of treatment, FIG. 1
  proliferative effect (intracellular ATP levels): concentration dependent proliferative effect
Adult neural stem cells; in addition to EGF (3 nM), FIG. 7
  ATP-levels with EGF and increasing concentrations of vanadate: not significantly altered
Adult neural stem cells; in the presence of EGF, supplement BIT or B27, FIGS. 2 and 3
  proliferative effect in combination with EGF: additive
Adult neural stem cells; in the presence of PACAP, supplement BIT or B27, FIGS. 4, 5
  proliferative effect in combination with PACAP: additive
Adult neural stem cells; FIGS. 2 and 3
  maximal amplitudes of responses: equal in size
[2]; humans
  tolerability in humans: tolerated
[2]; patients suffering from diabetes
  effect in patients suffering from diabetes: positive results
[3]
  blood glucose levels: reduces blood glucose levels

## EGF: epidermal growth factor, protein growth factor
Adult neural stem cells; FIGS. 2 and 3
  maximal amplitudes of responses: equal in size

## [Na+].[O]=[V](=[O])[O-] [NaVO3]
[2]; oral
  most common adverse effect: mild gastrointestinal intolerance

## [Na+].[Na+].[Na+].[O]=[V]([O-])([O-])[O-] [sodium orthovanadate]
Hippocampal CA1 region
  delayed neuronal death in the hippocampal CA1 region: rescued cells from delayed neuronal death

## IGF-1: insulinlike growth factor-1
Hippocampal CA1 region
  delayed neuronal death in the hippocampal CA1 region: rescued cells from delayed neuronal death

## COc1ccc(C2CNC(=O)C2)cc1OC1CCCC1 (centres unmarked) [rolipram]
[1]
  proliferation: trigger proliferation
